The values that follow come from ChEMBL document CHEMBL1130103, “Doxoform and Daunoform: anthracycline-formaldehyde conjugates toxic to resistant tumor cells” (J Med Chem, 1997).

One test relates to NCI/ADR-RES. Put plainly: compound was tested in vitro for inhibition activity against doxorubicin resistant counterpart of human breast carcinoma line cells. It is filed as functional, cell-based.
A further test concerns MCF7. Put plainly: compound was tested in vitro for inhibition activity against a sensitive human breast carcinoma line cells. It is filed as functional, cell-based.

Turning to `COc1cccc2c1C(=O)c1c(O)c3c(c(O)c1C2=O)C[C@@](O)(C(C)=O)C[C@@H]3OC1CC2C(OCN2CN2COC3C(C)OC(O[C@H]4C[C@](O)(C(C)=O)Cc5c(O)c6c(c(O)c54)C(=O)c4c(OC)cccc4C6=O)CC32)C(C)O1` (stereo partly drawn) [DAUNOFORM], the IC50 stood at 10 nM equiv l-1 with NCI/ADR-RES and 8 nM equiv l-1 in the test with MCF7.

Take `COc1cccc2c1C(=O)c1c(O)c3c(c(O)c1C2=O)C[C@@](O)(C(C)=O)C[C@@H]3O[C@H]1C[C@H](N)[C@H](O)[C@H](C)O1` [DAUNORUBICIN]: the IC50 turned out to be 2000 nM equiv l-1 in the test on NCI/ADR-RES and 60 nM equiv l-1 in the test on MCF7.

As for `COc1cccc2c1C(=O)c1c(O)c3c(c(O)c1C2=O)C[C@@](O)(C(=O)CO)C[C@@H]3OC1CC2C(OCN2CN2COC3C(C)OC(O[C@H]4C[C@](O)(C(=O)CO)Cc5c(O)c6c(c(O)c54)C(=O)c4c(OC)cccc4C6=O)CC32)C(C)O1` (stereo partly drawn) [DOXOFORM], the IC50 with NCI/ADR-RES turned out to be 1 nM equiv l-1; with MCF7, 2 nM equiv l-1.

In the case of `COc1cccc2c1C(=O)c1c(O)c3c(c(O)c1C2=O)C[C@@](O)(C(=O)CO)C[C@@H]3O[C@H]1C[C@H](N)[C@H](O)[C@H](C)O1` [DOXORUBICIN], the IC50 in the test on NCI/ADR-RES amounted to 10000 nM equiv l-1; in the test with MCF7 it was 300 nM equiv l-1.
